Drawing on PubChem BioAssay (NCI), this text covers TGI for two compounds.

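Each compound was tested at five concentrations against cells in 96-well plates for 48 hours. TGI denotes the concentration required for complete inhibition of growth.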

The test system of one test is P388/ADR leukemia. The experiment in a line: NCI tumour cell line growth inhibition, 48 h.
The next test relates to P388 leukemia. Kind of test: NCI tumour cell line growth inhibition, 48 h.

As for `COC(=O)C[C@](O)(CCCC(C)(C)O)C(=O)O[C@@H]1C(OC)=C[C@]23CCCN2CCc2cc4c(cc2[C@H]13)OCO4`, the figures for the TGI in the test on P388/ADR leukemia and with P388 leukemia were 1350 nM and 10.1 nM, respectively.
The like results for `COc1cccc2c1C(=O)c1c(O)c3c(c(O)c1C2=O)C[C@@](O)(C(=O)CO)C[C@@H]3OC1CC(N)CC(C)O1` (some centres undefined) were, in that order, 2960 nM and 588 nM.
